Results: patent US4153709A, “N-Heterocyclic ureas as immune regulants” (Eli Lilly and Company, priority 1977, dated 1979)

test system: antibody to sheep red blood cells; test: 75 percent reduction of control antibody titer in mice by subcutaneous, percutaneous and oral routes (Table 16); format: in vivo, male Swiss mice; conditions: Mus musculus, Erythrocyte, sc; subcutaneous; *seven doses, once daily, commencing the day of antigen administration; read-out: Lowest Dose Producing 75% Immunosuppression, Subcutaneous
Protocol: Subcutaneous, percutaneous, and oral activity have been achieved as indicated in Table 16 which follows employing representative compounds from the above entitled application. […] Except as indicated, the tests were performed using groups of five 20-gram male Swiss mice injected with 5×10^7 sheep red blood cells intravenously for each drug level. Ten (daily) administrations of drug were made commencing three days prior to red blood cell injection. On the day following the final treatment (7 days after red blood cell injection) the animals were bled by cardiac puncture, the sera from each five-mouse-group were pooled, and antibody titers of these serum pools and corresponding serum pools from control (untreated) mouse groups were determined. The results are expressed as the minimum drug dose effecting 75 percent reduction of control antibody titer: […]

SMILES	minimal effective dose [mg/kg]
O=C(Nc1ccccc1)Nc1nc2ccccc2[nH]1 [Table 1: phenyl, H, 1-(2-benzimidazolyl)-3-phenyl urea]	31.5

test system: antibody response to sheep blood cells (hemaglutination titer); test: Immune regulating test: suppression of hemaglutination titer by 4-fold factor in mice (i.p. drug, i.p. sheep blood cells), Tables 1-15; format: in vivo, Swiss mice; conditions: Mus musculus, ip, 192 h, × 3, intraperitoneal, minimum dose to suppress the hemaglutination titer by a 4-fold factor, 8 days after antigen, read-out: Immuno-Suppressant ED4-Fold
Protocol: The ability of compounds according to the above formulas to alter immune mechanisms in a host animal was measured by their activity according to the following test. Groups of five 20-gram Swiss mice were injected intraperitoneally with standardized suspensions of an antigen--in this instance sheep blook cells. […] Eight days after injection of the antigen, the mice were bled and the sera from each group pooled. Antibody determinations were made on the serum pools by a hemaglutination pattern procedure and comparisons made between treated and control animals. In Tables 1-18 which follow, the activity of the compounds listed therein is given in terms of the minimum dose of drug necessary to suppress the hemaglutination titer by a 4-fold factor in the treated mice as compared with control titers.

SMILES	minimal effective dose [mg/kg]
O=C(Nc1ccccc1)Nc1nc2ccccc2[nH]1 [Table 1: phenyl, H, 1-(2-benzimidazolyl)-3-phenyl urea]	12.5
O=C(Nc1ccc(F)cc1)Nc1nc2c(ccc3ccccc32)[nH]1 [Table 10: p-fluorophenyl]	25
O=C(Nc1ccccc1)Nc1nc2c(ccc3ccccc32)[nH]1 [Table 10: phenyl]	50
O=C(Nc1nc2c(ccc3ccccc32)[nH]1)Nc1cccc2ccccc12 [Table 10: α-naphthyl]	> 6.2
O=C(Nc1nc2ccccc2s1)Nc1cc(Cl)ccc1Cl [Table 11: 2,5-dichlorophenyl, H, S]	12.5
O=C(Nc1ccc(Cl)c(Cl)c1)Nc1nc2ccccc2s1 [Table 11: 3,4-dichlorophenyl, H, S]	12.5
O=C(Nc1cccc(Cl)c1)Nc1nc2c(Cl)cccc2s1 [Table 11: m-chlorophenyl, 4-Cl, S]	< 50
O=C(Nc1cccc(Cl)c1)Nc1nc2cc(Cl)ccc2o1 [Table 11: m-chlorophenyl, 5-Cl, O]	400
COc1ccc2nc(NC(=O)Nc3cccc(Cl)c3)sc2c1 [Table 11: m-chlorophenyl, 6-CH3 O, S]	12.5
O=C(Nc1cccc(Cl)c1)Nc1nc2ccccc2s1 [Table 11: m-chlorophenyl, H, S]	1.6
Cc1cccc(NC(=O)Nc2nc3cc(C)c(C)cc3s2)c1 [Table 11: m-tolyl, 5,6-dimethyl, S]	25
COc1ccc2nc(NC(=O)Nc3cccc(C)c3)sc2c1 [Table 11: m-tolyl, 6-CH3 O, S]	< 25
O=C(Nc1cccc(C(F)(F)F)c1)Nc1nc2ccccc2s1 [Table 11: m-trifluoromethylphenyl, H, S]	< 50
COc1ccccc1NC(=O)Nc1nc2ccccc2s1 [Table 11: o-anisyl, H, S]	50
COc1ccc2nc(NC(=O)Nc3ccccc3Cl)sc2c1 [Table 11: o-chlorophenyl, 6-CH3 O, S]	< 50
O=C(Nc1nc2ccccc2s1)Nc1ccccc1Cl [Table 11: o-chlorophenyl, H, S]	< 50
CCOc1ccccc1NC(=O)Nc1nc2ccccc2s1 [Table 11: o-ethoxyphenyl, H, S]	< 50
O=C(Nc1nc2ccccc2s1)Nc1ccccc1F [Table 11: o-fluorophenyl, H, S]	< 6.2
Cc1cc2nc(NC(=O)Nc3ccccc3C)sc2cc1C [Table 11: o-tolyl, 5,6-dimethyl, S]	< 25
COc1ccc2nc(NC(=O)Nc3ccccc3C)sc2c1 [Table 11: o-tolyl, 6-CH3 O, S]	< 50
Cc1ccccc1NC(=O)Nc1nc2ccccc2s1 [Table 11: o-tolyl, H, S]	< 50

SMILES	minimal effective dose [mg/kg]
COc1ccc(NC(=O)Nc2nc3ccccc3s2)cc1 [Table 11: p-anisyl, H, S]	50
Cc1cc2nc(NC(=O)Nc3ccc(Br)cc3)sc2cc1C [Table 11: p-bromophenyl, 5,6-dimethyl, S]	100
COc1ccc2nc(NC(=O)Nc3ccc(Br)cc3)sc2c1 [Table 11: p-bromophenyl, 6-CH3 O, S]	100
O=C(Nc1ccc(Br)cc1)Nc1nc2ccccc2s1 [Table 11: p-bromophenyl, H, S]	100
COc1ccc2nc(NC(=O)Nc3ccc(Cl)cc3)sc2c1 [Table 11: p-chlorophenyl, 6-CH3 O, S]	< 50
O=C(Nc1ccc(Cl)cc1)Nc1nc2ccccc2s1 [Table 11: p-chlorophenyl, H, S]	< 6.2
O=C(Nc1ccc(F)cc1)Nc1nc2ccccc2s1 [Table 11: p-fluorophenyl, H, S]	< 25
Cc1ccc(NC(=O)Nc2nc3cc(C)c(C)cc3s2)cc1 [Table 11: p-tolyl, 5,6-dimethyl, S]	100
COc1ccc2nc(NC(=O)Nc3ccc(C)cc3)sc2c1 [Table 11: p-tolyl, 6-CH3 O, S]	< 100
Cc1ccc(NC(=O)Nc2nc3ccccc3s2)cc1 [Table 11: p-tolyl, H, S]	100
O=C(Nc1ccccc1)Nc1nc2c(Cl)cccc2s1 [Table 11: phenyl, 4-Cl, S]	< 12.5
Cc1cc2nc(NC(=O)Nc3ccccc3)sc2cc1C [Table 11: phenyl, 5,6-dimethyl, S]	100
O=C(Nc1ccccc1)Nc1nc2cc(Cl)ccc2o1 [Table 11: phenyl, 5-Cl, O]	200
O=C(Nc1ccccc1)Nc1nc2ccccc2o1 [Table 11: phenyl, H, O]	50
Cc1cc2nc(NC(=O)Nc3cccc4ccccc34)sc2cc1C [Table 11: α-naphthyl, 5,6-dimethyl, S]	50
O=C(Nc1nc2cc(Cl)ccc2o1)Nc1cccc2ccccc12 [Table 11: α-naphthyl, 5-Cl, O]	200
COc1ccc2nc(NC(=O)Nc3cccc4ccccc34)sc2c1 [Table 11: α-naphthyl, 6-CH3 O, S]	< 50
O=C(Nc1nc2ccccc2o1)Nc1cccc2ccccc12 [Table 11: α-naphthyl, H, O]	50
CN(C(=O)Nc1ccc(Cl)cc1)c1nc2ccccc2s1 [Table 12: p-chlorophenyl]	< 50
CN(C(=O)Nc1ccccc1)c1nc2ccccc2s1 [Table 12: phenyl]	50
CN(C(=O)Nc1cccc2ccccc12)c1nc2ccccc2s1 [Table 12: α-naphthyl]	50

SMILES	minimal effective dose [mg/kg]
O=C(Nc1nc2c(s1)CCCC2)Nc1cccc2ccccc12 [Table 13: α-naphthyl]	< 50
O=C(Nc1nc2c(ccc3ccccc32)s1)Nc1cc(Cl)ccc1Cl [Table 14: 2,5-dichlorophenyl]	100
O=C(Nc1ccc(Cl)c(Cl)c1)Nc1nc2c(ccc3ccccc32)s1 [Table 14: 3,4-dichlorophenyl]	3.1
O=C(Nc1cccc(Cl)c1)Nc1nc2c(ccc3ccccc32)s1 [Table 14: m-chlorophenyl]	< 1.6
Cc1cccc(NC(=O)Nc2nc3c(ccc4ccccc43)s2)c1 [Table 14: m-tolyl]	3.1
O=C(Nc1cccc(C(F)(F)F)c1)Nc1nc2c(ccc3ccccc32)s1 [Table 14: m-trifluoromethylphenyl]	< 6.2
O=C(Nc1nc2c(ccc3ccccc32)s1)Nc1ccccc1Cl [Table 14: o-chlorophenyl]	6.2
O=C(Nc1nc2c(ccc3ccccc32)s1)Nc1ccccc1F [Table 14: o-fluorophenyl]	3.1
Cc1ccccc1NC(=O)Nc1nc2c(ccc3ccccc32)s1 [Table 14: o-tolyl]	< 1.6
O=C(Nc1ccc(Br)cc1)Nc1nc2c(ccc3ccccc32)s1 [Table 14: p-bromophenyl]	< 50
O=C(Nc1ccc(Cl)cc1)Nc1nc2c(ccc3ccccc32)s1 [Table 14: p-chlorophenyl]	< 100
O=C(Nc1ccc(F)cc1)Nc1nc2c(ccc3ccccc32)s1 [Table 14: p-fluorophenyl]	12.5
Cc1ccc(NC(=O)Nc2nc3c(ccc4ccccc43)s2)cc1 [Table 14: p-tolyl]	6.2
O=C(Nc1ccccc1)Nc1nc2c(ccc3ccccc32)s1 [Table 14: phenyl]	< 12.5
O=C(Nc1nc2c(ccc3ccccc32)s1)Nc1cccc2ccccc12 [Table 14: α-naphthyl]	3.1
O=C(Nc1ccc(Br)cc1)Nc1nc2ccc3ccccc3c2s1 [Table 15: p-bromophenyl]	50
Cc1ccc(NC(=O)Nc2nc3ccc4ccccc4c3s2)cc1 [Table 15: p-tolyl]	> 25
O=C(Nc1ccccc1)Nc1nc2ccc3ccccc3c2s1 [Table 15: phenyl]	0.8
O=C(Nc1nc2ccc3ccccc3c2s1)Nc1cccc2ccccc12 [Table 15: α-naphthyl]	0.4
